Data as given in patent publication US6406881B2 (priority 1999, dated 2002).

What was measured:
Escherichia coli = assay: Mutant prevention concentration (MPC) against Escherichia coli; format: cell-based; details: for WI (MPC/MIC): window index
Staphylococcus aureus = assay: Mutant prevention concentration (MPC) against Staphylococcus aureus; format: cell-based; details: for WI (MPC/MIC): window index

O=C(N[C@H](CO)[C@H](O)c1ccc([N+](=O)[O-])cc1)C(Cl)Cl [Chloramphenicol]
MPC (MPC10^10) (Escherichia coli): 12 μg/ml
WI (MPC/MIC) (Escherichia coli): 6.3
MPC (MPC10^10) (Staphylococcus aureus): 40 μg/ml
WI (MPC/MIC) (Staphylococcus aureus): 21
WI (MPC/MIC) (Staphylococcus aureus; listed as chloramphenicol): about 21

CCn1cc(C(=O)O)c(=O)c2cc(F)c(N3CCNCC3)cc21 [Norfloxacin]
MPC (MPC10^10) (Escherichia coli): 1.5 μg/ml
WI (MPC/MIC) (Escherichia coli): 33
MPC (MPC10^10) (Staphylococcus aureus): 22 μg/ml
WI (MPC/MIC) (Staphylococcus aureus): 26

CO[C@H]1/C=C/O[C@@]2(C)Oc3c(C)c(O)c4c(O)c(c(/C=N/N5CCN(C)CC5)c(O)c4c3C2=O)NC(=O)/C(C)=C\C=C\[C@H](C)[C@H](O)[C@@H](C)[C@@H](O)[C@@H](C)[C@H](OC(C)=O)[C@@H]1C [Rifampicin]
MPC (MPC10^10) (Escherichia coli): >4,000 μg/ml
WI (MPC/MIC) (Escherichia coli): >800
MPC (MPC10^10) (Staphylococcus aureus): 480 μg/ml
WI (MPC/MIC) (Staphylococcus aureus): 120,000
WI (MPC/MIC) (Staphylococcus aureus; listed as rifampicin): greater than 120,000

NC[C@H]1O[C@H](O[C@H]2[C@H](O)[C@@H](O[C@H]3O[C@H](CO)[C@@H](O)[C@H](N)[C@H]3O)[C@H](N)C[C@@H]2N)[C@H](N)C[C@@H]1O [Tobramycin]
MPC (MPC10^10) (Escherichia coli): 25 μg/ml
WI (MPC/MIC) (Escherichia coli): 21
MPC (MPC10^10) (Staphylococcus aureus): 20 μg/ml
WI (MPC/MIC) (Staphylococcus aureus): 74

CN[C@H](CC(C)C)C(=O)N[C@H]1C(=O)N[C@@H](CC(N)=O)C(=O)N[C@H]2C(=O)N[C@H]3C(=O)N[C@H](C(=O)N[C@H](C(=O)O)c4cc(O)cc(O)c4-c4cc3ccc4O)[C@H](O)c3ccc(c(Cl)c3)Oc3cc2cc(c3O[C@@H]2O[C@H](CO)[C@@H](O)[C@H](O)[C@H]2O[C@H]2C[C@](C)(N)[C@H](O)[C@H](C)O2)Oc2ccc(cc2Cl)[C@H]1O [Vancomycin]
MPC (MPC10^10) (Staphylococcus aureus): 40 μg/ml
WI (MPC/MIC) (Staphylococcus aureus): 61

Penicillin
MPC (MPC10^10) (Escherichia coli): 300 μg/ml
WI (MPC/MIC) (Escherichia coli): 100
MPC (MPC10^10) (Staphylococcus aureus): 1 μg/ml
WI (MPC/MIC) (Staphylococcus aureus): 42
